Results from patent publication US10821120B2, “Method for controlling neuroinflammation” (N.V. NUTRICIA, priority 2016, dated 2020).

Tests used:
[1] = system: LPS-stimulated BV-2 cells; experiment: Griess assay (nitric oxide release) from LPS-activated BV-2 microglia; assay type: cell-based, mouse; conditions: vitamin D 1 μg/ml, DHA 20 μM; for NO release as percentage of the NO released by cells stimulated only with LPS: Example 1, high non-toxic concentrations: vitamin A 1.75 μM, EPA 20 μM, 24 h pretreatment, then 24 h with LPS 50 ng/ml plus same nutrients, LPS control = 100%; for effect on LPS-induced NO release (in words): Example 1 concentrations: vitamin B6 29 μM, folic acid 24 μM, vitamin B12 0.2 μM, vitamin A 1.75 μM, versus LPS control
Excerpt: (§1) BV-2 cell cultures: BV-2 cells were obtained from IRCCS (Azienda Ospedaliera Universitaria San Martino—IST Istituto Nazionale per la Ricerca sul Cancro, Genova, Italy). BV-2 cell lines are immortalized cell lines derived from C57bl/6 mouse. These are considered to closely resemble the physiology of primary microglia cells and form a well-established model for investigation in vitro (Henn et al., ALTEX, 2009, 26, 83-94). Lipopolysaccharide (LPS), an endotoxin derived from the cell wall of gram negative bacteria, is the most widely used agent to activate immune cells. Cells were cultured in Dulbecco's Modified Eagle Medium (DMEM, Gibco) supplemented with 10% of heat-inactivated fetal bovine serum (Invitrogen), 10,000 units/ml penicillin (Gibco), 10,000 μg/ml streptomycin (Gibco) and 200 mM L-glutamine (Gibco) and maintained at 37° C. and 5% CO2. Twenty-four hours before the experiment, cells were plated on 96 well plates (Corning) at a cell density of approximately 20,000 cells/well and maintained in DMEM supplemented with 2% fetal bovine serum, 10,000 units/ml penicillin, 10,000 μg/ml streptomycin and 200 mM L-glutamine, for the duration of the experiment.
(§2) Cell viability: Cell proliferation and viability were assessed with 2,3-bis(2-methoxy-4-nitro-5-sulfophenyl)-2H-tetrazolium-5-carboxanilide inner salt (XTT, Sigma) at a concentration of 1 mg/ml. Phenazine methosulfate (PMS, Sigma) at a concentration of 200 mg/ml was added as an electron coupling reagent. The XTT/PMS solution in sterile water (100 μl) was added to each well. After 2 h, the absorbance was measured at 450 nm (and 690 nm as a reference). The absorbance was corrected for the number of cells. The viability test was repeated for each experiment as a within plate control.
Griess assay (nitric oxide release): Cells were treated for 24 h with different combinations of nutrients. This treatment was followed by exchanging the medium for fresh medium with LPS (50 ng/ml) combined with the same nutrients. After incubation for 24 h, media were collected for measurement of NO release. The stable product of NO released by the BV-2 cells is NO2^−. The concentration of NO2^− was measured with a Griess assay Kit (Promega) according to the manufacturer's instructions. Data were corrected for cell viability (the viability of untreated control cells represented 100% of viability). Data are represented as percentage of the NO released by cells stimulated only with LPS. To assess variability between the tests, data from the treatment with LPS alone were pooled and an average release between experiments was calculated for NO. For treatment with LPS alone, the NO release is represented as the percentage of the average release between experiments.
(§3) Statistical analysis: All experiments were performed at least in triplicate. The data are presented as dots representing means and bars representing standard error mean (SEM). Due to the small sample size, non-parametric statistical tests were used. Data were analyzed with the Kruskal-Wallis H test and if the statistical significance was reached, Mann Whithey U test with Bonferroni-Holm post-hoc correction to allow multiple comparisons was performed. A difference was considered statistically significant when the probability (p) was <0.05.
(§4) BV-2 cells were pretreated for 24 h with different nutrients: (I) vitamin A (1.75 μM); (II) vitamin D (1 μg/ml); (III) DHA (20 μM); (IV) EPA (20 μM); (V) vitamin B6 (29 μM, including 19 μM already present in the culture medium); (VI) folic acid (24 μM, including 9 μM already present in the culture medium); (VII) vitamin B12 (0.2 μM). This was followed by 24 h incubation with LPS (50 ng/ml) combined with the same nutrients. Media were collected for measurement of NO release with the Griess assay (FIG. 1A) and IL-6 release with ELISA (FIG. 1B). NO and IL-6 levels are presented as the percentage of the concentration produced by cells treated with LPS alone (LPS control, dashed line).

[2] = system: LPS-stimulated BV-2 cells; experiment: ELISA (IL-6) release from LPS-activated BV-2 microglia; assay type: cell-based, mouse; conditions: vitamin D 1 μg/ml, DHA 20 μM; for IL-6 release as percentage of the IL-6 released by cells stimulated only with LPS: Example 1, high non-toxic concentrations: vitamin A 1.75 μM, EPA 20 μM, 24 h pretreatment, then 24 h with LPS 50 ng/ml plus same nutrients, LPS control = 100%; for effect on LPS-induced IL-6 release (in words): Example 1 concentrations: vitamin B6 29 μM, folic acid 24 μM, vitamin B12 0.2 μM, vitamin A 1.75 μM, versus LPS control
Excerpt: as §1, §2
ELISA (IL-6): Cells were treated for 24 h with different combinations of nutrients. Subsequently, the medium was removed and cells were incubated for 24 h in fresh medium with LPS (50 ng/ml) combined with the same nutrients. Media were collected for measurement of IL-6 release. Collected samples were stored at −80° C. until further analysis. The cytokine levels were assessed using ELISA MAX™ Deluxe from Biolegend according to the manufacturer's protocol. Data were corrected for cell viability. Data are represented as percentage of the IL-6 released by cells stimulated only with LPS. To assess variability between the tests, data from the treatment with LPS alone were pooled and an average release between experiments was calculated for IL-6. For LPS alone treatment the IL-6 release is represented as the percentage of the average release between experiments.
as §3
as §4, with “line). All graphs represent the results from 4 independent experiments (mean±SEM).” for “line).”

Molecule | NO release as percentage of the NO released by cells stimulated only with LPS [1] [%] | IL-6 release as percentage of the IL-6 released by cells stimulated only with LPS [2] [%] | effect on LPS-induced NO release (in words) [1] | effect on LPS-induced IL-6 release (in words) [2]
CC/C=C\C/C=C\C/C=C\C/C=C\C/C=C\C/C=C\CCC(=O)O [DHA, cis-4,7,10,13,16,19-docosahexaenoic acid] | 68 | 68 |  | 
CC/C=C\C/C=C\C/C=C\C/C=C\C/C=C\CCCC(=O)O [EPA, cis-5,8,11,14,17-eicosapentaenoic acid] | 80 | 70 |  | 
N[C@@H](CS)C(=O)O [L-cysteine] |  |  | did not cause any significant effect | did not cause any significant effects
N[C@@H](Cc1c[nH]c2ccccc12)C(=O)O [L-tryptophan] |  |  | did not cause any significant effect | did not cause any significant effects
Cc1ncc(CO)c(CO)c1O.Cl [Vitamin B6, vitamin B6] |  |  | did not cause any significant effect | did not cause any significant effects
Nc1nc2ncc(CNc3ccc(C(=O)N[C@@H](CCC(=O)O)C(=O)O)cc3)nc2c(=O)[nH]1 [Vitamin B9, folic acid] |  |  | did not cause any significant effect | did not cause any significant effects
C=C1CC[C@H](O)C/C1=C/C=C1\CCC[C@]2(C)[C@@H]([C@H](C)CCCC(C)C)CC[C@@H]12 [Vitamin D, vitamin D3] | 43 | 43 |  | 
vitamin A | 39 | 42 |  | 
vitamin B12 |  |  | did not cause any significant effect | did not cause any significant effects
